# Measured values: US8455515B2, “Substituted 4-phenyltetrahydroisoquinolines, process for their preparation, pharmaceutical compositions and therapeutic use” (Sanofi, priority 2005, dated 2013)
# Where a name gives a salt, the structure may show the parent alone.
# Legend:
# imidazoline receptor = details: cited from earlier work
# [1] = tested on: adrenergic alpha-2 receptor; details: cited from earlier work
# NHE [2] = biological target: T1, NHE (Homo sapiens, UniProt P48764); test: recovery of intracellular pH in LAP1 cells expressing NHE (FLIPR, BCECF); type: cell-based; details: LAP1 cells stably expressing NHE, pH recovery after acidification
# T1 sequence (P48764 26-834): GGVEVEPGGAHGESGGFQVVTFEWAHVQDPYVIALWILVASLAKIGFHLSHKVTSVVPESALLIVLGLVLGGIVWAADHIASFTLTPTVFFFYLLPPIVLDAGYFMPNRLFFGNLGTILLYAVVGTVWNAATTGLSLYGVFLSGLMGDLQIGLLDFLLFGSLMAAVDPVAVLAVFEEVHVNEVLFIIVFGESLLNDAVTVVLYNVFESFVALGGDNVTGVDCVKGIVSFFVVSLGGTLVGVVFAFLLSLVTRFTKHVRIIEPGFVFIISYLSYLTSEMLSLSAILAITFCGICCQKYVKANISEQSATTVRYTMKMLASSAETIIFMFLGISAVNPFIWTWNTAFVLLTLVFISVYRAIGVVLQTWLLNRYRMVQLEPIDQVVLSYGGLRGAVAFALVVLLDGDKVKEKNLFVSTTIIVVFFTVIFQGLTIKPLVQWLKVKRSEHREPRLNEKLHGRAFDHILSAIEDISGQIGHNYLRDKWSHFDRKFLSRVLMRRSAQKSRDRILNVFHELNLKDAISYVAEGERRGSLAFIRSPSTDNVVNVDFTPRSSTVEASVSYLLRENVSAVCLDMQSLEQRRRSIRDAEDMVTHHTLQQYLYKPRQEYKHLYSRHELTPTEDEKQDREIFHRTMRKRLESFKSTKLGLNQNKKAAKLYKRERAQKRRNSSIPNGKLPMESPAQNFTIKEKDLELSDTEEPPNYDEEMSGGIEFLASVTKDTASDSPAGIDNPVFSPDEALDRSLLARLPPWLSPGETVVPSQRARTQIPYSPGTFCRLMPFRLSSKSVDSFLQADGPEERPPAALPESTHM
# Protocol: NHE and NHE5 Test Description:
# In this test, the recovery in the intracellular pH (pHi) of LAP1 cells, which stably express the different subtypes of the sodium-proton exchanger (NHE), after an acidification was determined. This recovery sets in even under bicarbonate-free conditions in the case of functioning NHE. To this end, the pHi was determined with the pH-sensitive fluorescent dye BCECF (Molecular Probes, Eugene, Oreg., USA; the precursor BCECF-AM is used). The cells were first incubated with BCECF (5 μM BCECF-AM) in NH4Cl buffer (NH4Cl buffer: 115 mM cholineCl, 20 mM NH4Cl, 5 mM KCl, 1 mM CaCl2, 1 mM MgCl2, 20 mM Hepes, 5 mM glucose; a pH of 7.4 is established with 1 M KOH). […] The pH recovery was started by the addition of 90 μl of Na^+-containing buffer (133.8 mM NaCl, 4.7 mM KCl, 1.25 mM CaCl2, 1.25 mM MgCl2, 0.97 mM Na2HPO4, 0.23 mM NaH2PO4, 10 mM Hepes, 5 mM glucose; a pH of 7.4 is established with 1 M NaOH) in the analytical instrument (FLIPR, “Fluorometric Imaging Plate Reader”, Molecular Devices, Sunnyvale, Calif., USA). The BCECF fluorescence was determined at an excitation wavelength of 498 nm and the FLIPR emission filter 1 (band gap from 510 to 570 nm). The subsequent changes in fluorescence were registered for NHE and NHE5 for two minutes as a measure of the pH recovery. […]
# hippocampus sections = test: long-term experiments on hippocampus sections (in vitro), weak tetanus early LTP in CA 1; design: species or system rats; details: rat hippocampus sections, 10 μM
# NHE [3] = biological target: T1, NHE; test: inhibitory action on NHE subtypes: NHE; details: therapeutically utilizable concentration range
# NHE-5 = biological target: T2, NHE-5 (Homo sapiens, UniProt Q14940); test: inhibitory action on NHE subtypes: NHE-5; details: therapeutically utilizable concentration range
# T2 sequence (Q14940 1-896): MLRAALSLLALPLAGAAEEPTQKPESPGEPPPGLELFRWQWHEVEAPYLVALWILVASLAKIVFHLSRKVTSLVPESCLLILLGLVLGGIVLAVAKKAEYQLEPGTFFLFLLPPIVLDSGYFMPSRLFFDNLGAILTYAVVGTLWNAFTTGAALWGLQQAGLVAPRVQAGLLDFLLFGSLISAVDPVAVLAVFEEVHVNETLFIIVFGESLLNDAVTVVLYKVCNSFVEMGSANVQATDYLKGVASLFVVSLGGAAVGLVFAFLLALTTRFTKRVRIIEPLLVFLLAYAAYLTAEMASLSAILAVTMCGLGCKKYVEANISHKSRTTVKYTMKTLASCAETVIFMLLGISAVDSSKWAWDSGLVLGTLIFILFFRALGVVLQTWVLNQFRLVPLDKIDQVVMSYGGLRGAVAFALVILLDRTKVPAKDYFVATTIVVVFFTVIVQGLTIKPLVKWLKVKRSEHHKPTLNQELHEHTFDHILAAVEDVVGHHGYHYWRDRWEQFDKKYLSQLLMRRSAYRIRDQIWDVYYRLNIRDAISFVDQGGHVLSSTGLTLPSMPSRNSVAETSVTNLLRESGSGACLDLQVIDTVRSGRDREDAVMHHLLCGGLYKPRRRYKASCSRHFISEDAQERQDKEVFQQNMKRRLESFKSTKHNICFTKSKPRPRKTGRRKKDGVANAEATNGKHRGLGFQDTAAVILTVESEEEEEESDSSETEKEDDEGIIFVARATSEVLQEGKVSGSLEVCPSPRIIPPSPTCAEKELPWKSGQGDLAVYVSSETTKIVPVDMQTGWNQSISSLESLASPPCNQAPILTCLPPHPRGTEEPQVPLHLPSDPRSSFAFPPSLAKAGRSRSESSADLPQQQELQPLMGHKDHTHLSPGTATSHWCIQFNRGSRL
# NHE-2 = biological target: T3, NHE-2 (Homo sapiens, UniProt Q9UBY0); test: inhibitory action on NHE subtypes: NHE-2; details: therapeutically utilizable concentration range
# T3 sequence (Q9UBY0 1-812): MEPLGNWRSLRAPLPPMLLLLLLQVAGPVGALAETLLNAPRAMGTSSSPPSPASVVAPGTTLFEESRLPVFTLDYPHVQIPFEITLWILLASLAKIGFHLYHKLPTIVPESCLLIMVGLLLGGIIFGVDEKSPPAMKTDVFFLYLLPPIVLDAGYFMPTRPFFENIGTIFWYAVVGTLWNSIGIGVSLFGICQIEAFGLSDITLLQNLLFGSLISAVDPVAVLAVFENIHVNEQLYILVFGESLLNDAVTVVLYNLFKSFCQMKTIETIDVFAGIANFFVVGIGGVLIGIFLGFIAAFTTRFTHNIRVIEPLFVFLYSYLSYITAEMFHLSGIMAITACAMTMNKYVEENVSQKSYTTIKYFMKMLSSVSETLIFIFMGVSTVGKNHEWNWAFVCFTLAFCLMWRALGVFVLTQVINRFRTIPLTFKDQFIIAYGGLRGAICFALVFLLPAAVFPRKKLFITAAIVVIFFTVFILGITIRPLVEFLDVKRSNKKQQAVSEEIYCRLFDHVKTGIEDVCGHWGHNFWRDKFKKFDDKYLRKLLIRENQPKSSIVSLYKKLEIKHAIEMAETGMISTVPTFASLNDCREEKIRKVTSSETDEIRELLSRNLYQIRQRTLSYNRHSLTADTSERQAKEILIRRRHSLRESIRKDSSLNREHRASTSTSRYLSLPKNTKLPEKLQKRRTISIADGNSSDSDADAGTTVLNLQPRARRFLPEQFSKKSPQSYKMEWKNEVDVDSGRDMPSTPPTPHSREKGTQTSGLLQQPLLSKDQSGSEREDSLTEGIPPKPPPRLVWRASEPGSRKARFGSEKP
# NHE-1 = NHE-1 (Homo sapiens, UniProt P19634); test: inhibitory action on NHE subtypes: NHE-1; details: therapeutically utilizable concentration range
# Sequence of NHE-1 (P19634 whole entry, species assumed): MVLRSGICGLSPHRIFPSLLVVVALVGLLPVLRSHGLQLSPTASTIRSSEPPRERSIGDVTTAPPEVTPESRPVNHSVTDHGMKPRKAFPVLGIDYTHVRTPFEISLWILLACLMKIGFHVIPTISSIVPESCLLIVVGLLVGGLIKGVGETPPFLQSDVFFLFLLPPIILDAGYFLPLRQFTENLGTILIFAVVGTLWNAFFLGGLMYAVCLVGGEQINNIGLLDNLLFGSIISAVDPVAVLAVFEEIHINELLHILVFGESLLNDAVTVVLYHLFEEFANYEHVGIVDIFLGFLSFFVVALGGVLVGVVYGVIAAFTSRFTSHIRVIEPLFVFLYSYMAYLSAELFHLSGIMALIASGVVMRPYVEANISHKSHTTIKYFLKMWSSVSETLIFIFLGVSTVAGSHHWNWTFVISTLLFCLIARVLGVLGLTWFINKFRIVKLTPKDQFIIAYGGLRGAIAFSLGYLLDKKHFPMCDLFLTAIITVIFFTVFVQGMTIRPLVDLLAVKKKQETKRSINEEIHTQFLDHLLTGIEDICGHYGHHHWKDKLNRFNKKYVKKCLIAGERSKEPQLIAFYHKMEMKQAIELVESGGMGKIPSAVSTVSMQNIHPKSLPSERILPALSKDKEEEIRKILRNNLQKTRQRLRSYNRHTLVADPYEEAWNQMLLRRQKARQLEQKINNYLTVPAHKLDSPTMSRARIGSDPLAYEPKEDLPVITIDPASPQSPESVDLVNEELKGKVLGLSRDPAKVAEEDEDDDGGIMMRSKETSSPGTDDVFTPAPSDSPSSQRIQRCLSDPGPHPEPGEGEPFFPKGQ
smiles,measurement,setting,value
"CN1Cc2c(Cl)cc(Cl)cc2C(c2ccc(S(=O)(=O)N=C(N)N)cc2)C1 (stereo not shown) (as salt: hydrochloride) [Example 1, N-Diaminomethylene-4-(6,8-dichloro-2-methyl-1,2,3,4-tetrahydro-isoquinolin-4-yl)benzenesulfonamide, dihydrochloride]",melting point,,140 °C (dec.)
Clc1cccc(Cl)c1N=C1NCCN1 [Clonidine],affinity for the imidazoline receptor,imidazoline receptor,high affinity
same,affinity for the adrenergic alpha-2 receptor,[1],high affinity
"CN1Cc2c(Cl)cc(Cl)cc2C(c2ccc(S(=O)(=O)N=C(N)N)cc2)C1 (stereo not shown) [Example 1, N-Diaminomethylene-4-(6,8-dichloro-2-methyl-1,2,3,4-tetrahydro-isoquinolin-4-yl)benzenesulfonamide, dihydrochloride]",IC50,NHE [2],35 nM
same,intrinsic effect on synaptic transmission,hippocampus sections; before tetanus,no intrinsic effect
same,potentiation of the EPSP 80 min after the stimulus,"hippocampus sections; weak tetanus, 80 min after stimulus (control 113%)",137 % of the baseline
Cc1csc(Cl)c1NC1=NCCN1 [tiamenidine],inhibitory action on NHE,NHE [3],no relevant inhibitory actions
same,inhibitory action on NHE-5,NHE-5,no relevant inhibitory actions
same,inhibitory action on NHE-2,NHE-2,no relevant inhibitory actions
same,inhibitory action on NHE-1,NHE-1,no relevant inhibitory actions
